According to patent publication US20130345199A1, “1-[M-CARBOXAMIDO(HETERO)ARYL-METHYL]-PIPERIDINE-4-CARBOXAMIDE DERIVATIVES” (Actelion Pharmaceuticals Ltd., priority 2012, published 2013):

Target: T1, CXCR7 (Homo sapiens, UniProt P25106)
T1 construct: host or cells: CHO-K1 (PathHunter CXCR7 b-arrestin cell line, stably transfected)
Experiment: PathHunter CHO-K1 CXCR7 b-arrestin assay (agonistic activity)
Assay type: cell-based
Conditions: PathHunter CHO-K1 CXCR7 b-arrestin cell line, 90 minutes at 37° C.
Description: The […] receptor and CXCR7 agonistic activities of the compounds of formula (I) are determined in accordance with the following experimental method.
The assay is using the PathHunter™ CHO-K1 CXCR7 b-arrestin cell line from DiscoverX. The system is based on the Enzyme Fragment Complementation Technology. Two complementing fragments of the b-galactosidase enzyme are expressed within stably transfected cells. The larger portion of b-gal, termed EA for Enzyme Acceptor, is fused to the C-terminus of b-arrestin 2. The smaller fragment, termed ProLink™ tag, is fused to CXCR7 at the C-terminus. Upon activation, b-arrestin is recruited which forces the interaction of ProLink and EA, allowing complementation of the two fragments of b-gal and the formation of a functional enzyme which is capable of hydrolysing the substrate and generating a chemiluminescent signal.
CHO-K1 CXCR7 b-arrestin cells are detached from culture dishes with a cell dissociation buffer (Invitrogen, #13151-014) and collected in growing medium (F12HAMS 90% (v/v)/FCS 10% (v/v), Penicilin/streptomycin 1% (v/v)). 5000 cells per well (in 20 μl) are seeded in a 384 well plate (white-walled, clear bottom; BD Falcon #353274). The plate is incubated at 37° C./5% CO2 for 24 hours. Medium is then replaced by […] (Invitrogen #31985) for 3 to 4 hours. Test compounds are dissolved at 10 mM in DMSO and serially diluted in DMSO to 200× of the final concentration for dose response curves. Compounds are then diluted 1:33.3 in HBSS1X. 5 μl/well of HBSS1X/20 mM HEPES/0.2% BSA are added to the assay plate followed by addition of 5 μl/well of diluted compounds. CXCL12 (Peprotech #300-28A) may be used as a reference agonist. The plate is incubated for 90 minutes at 37° C. 12 μl of detection reagent (Path Hunter Detection Kit, DiscoveRx, #93-0001) is transferred to the assay plate and to the plate is incubated for 1 hour at room temperature. Luminescent signal is read in a microplate reader (FLUOstar Optima, bmg). The calculated EC50 values may fluctuate depending on the daily cellular assay performance. Fluctuations of this kind are known to those skilled in the art.

T1 sequence (P25106 whole entry): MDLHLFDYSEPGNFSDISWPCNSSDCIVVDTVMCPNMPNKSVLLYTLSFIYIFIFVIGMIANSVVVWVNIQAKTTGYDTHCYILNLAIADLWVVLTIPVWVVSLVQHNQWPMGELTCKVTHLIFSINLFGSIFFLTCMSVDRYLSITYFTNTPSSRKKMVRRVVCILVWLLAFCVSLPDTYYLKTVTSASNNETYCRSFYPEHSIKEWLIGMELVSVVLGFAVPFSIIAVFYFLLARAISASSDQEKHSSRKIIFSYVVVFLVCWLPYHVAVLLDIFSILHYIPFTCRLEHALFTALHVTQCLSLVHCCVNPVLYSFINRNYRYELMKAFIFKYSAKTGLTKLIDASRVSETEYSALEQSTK

Going from `O=C(Nc1ccc(F)c(CN2CCC(C(=O)NC3CCCCC3)CC2)c1)c1cccc(C(F)(F)F)n1` [Example 4.016, 6-Trifluoromethyl-pyridine-2-carboxylic acid [3-(4-cyclohexylcarbamoyl-piperidin-1-ylmethyl)-4-fluoro-phenyl]-amide] to `Cc1cncc(C(=O)Nc2cccc(CN3CCC(C(=O)N4CCCCC4)CC3)c2)c1` [Example 2.046], the EC50 rises from 3 nM to 6 nM (2-fold).

Going from `Cc1cncc(C(=O)Nc2cccc(CN3CCC(C(=O)N4CC[C@H](F)C4)CC3)c2)c1` [Example 2.053] to `CCC(C)(C)NC(=O)C1CCCN(Cc2cccc(NC(=O)c3cccc(C(F)(F)F)n3)c2)CC1` (racemic) [Example 2.088], the EC50 falls from 195 nM to 19 nM (10-fold).

First: Cc1cncc(C(=O)Nc2cccc(CN3CCC(C(=O)N(C)CC(C)C)CC3)c2)c1 [Example 2.057]
Second: CC(C)(C)NC(=O)C1(F)CCN(Cc2cccc(NC(=O)c3cccc(C(F)(F)F)n3)c2)CC1 [Example 4.009, 6-Trifluoromethyl-pyridine-2-carboxylic acid [3-(4-tert-butylcarbamoyl-4-fluoro-piperidin-1-ylmethyl)-phenyl]-amide]
The EC50 of the first is 2.5-fold lower: 8 nM for the first, 20 nM for the second. The first is the more potent here.

Compared with `O=C(Nc1cccc(CN2CCC(C(=O)N[C@H](CO)C3CCCCC3)CC2)c1)c1cccc(C(F)(F)F)n1` [Example 2.066], `CN(C(=O)C1CCN(Cc2cccc(NC(=O)c3cccs3)c2)CC1)C1CCCCC1` [Example 2.077] is 5-fold lower in EC50: 431 nM for the first, 87 nM for the second. The second is the more potent here.

Going from `CNC(=O)C1CCN(Cc2cccc(NC(=O)c3cccc(C(F)(F)F)n3)c2)CC1` [Example 2.068] to `CC(C)(NC(=O)C1CCN(Cc2cccc(NC(=O)c3ccc(Cl)cc3)c2)CC1)c1ccccc1` [Example 2.017], the EC50 rises from 4 nM to 219 nM (55-fold). The first is the more potent here.

`Cc1cncc(C(=O)Nc2cccc(CN3CCC(C(=O)N4CCCCCC4)CC3)c2)c1` [Example 2.048] and `O=C(Nc1cc(CN2CCC(C(=O)NC3CCCCC3)CC2)ccn1)c1ccc(F)cc1` [Example 3.001, 1-[2-(4-Fluoro-benzoylamino)-pyridin-4-ylmethyl]-piperidine-4-carboxylic acid cyclohexylamide] are within 1.5-fold of each other in EC50: 19 nM for the first, 24 nM for the second.

Going from `Cc1cncc(C(=O)Nc2cccc(CN3CCC(C(=O)NC4CCCC4)C3)c2)c1` (stereo not shown) [Example 2.062] to `Cc1cncc(C(=O)Nc2cccc(CN3CCC(C(=O)N4C(C)CCC4C)CC3)c2)c1` (stereo not shown) [Example 2.051], the EC50 rises from 28 nM to 96 nM (3.4-fold).

First: CC(C)NC(=O)C1CCN(Cc2cccc(NC(=O)c3ccc(Cl)cc3)c2)CC1 [Example 2.003]
Second: COCCNC(=O)C1CCN(Cc2cccc(NC(=O)c3ccc(Cl)cc3)c2)CC1 [Example 2.005]
The EC50 of the first is 6.2-fold lower: 0.8 nM for the first, 5 nM for the second. The first is the more potent here.

Compared with `O=C(Nc1cccc(CN2CCC(C(=O)NCc3ccccc3)CC2)c1)c1ccc(Cl)cc1` [Example 2.035], `Cc1cc(CNC(=O)C2CCN(Cc3cccc(NC(=O)c4ccc(Cl)cc4)c3)CC2)c(C(F)(F)F)o1` [Example 2.034] is 12-fold higher in EC50: 45 nM for the first, 533 nM for the second.

First: O=C(Nc1cccc(CN2CCC(C(=O)NCc3ccncc3)CC2)c1)c1ccc(Cl)cc1 [Example 2.021]
Second: CC(C)C(CO)NC(=O)C1CCN(Cc2cccc(NC(=O)c3cccc(C(F)(F)F)n3)c2)CC1 (racemic) [Example 2.064]
The EC50 of the first is 2.5-fold higher: 218 nM for the first, 87 nM for the second.

First: CC(C)(C)[C@@H](CO)NC(=O)C1CCN(Cc2cccc(NC(=O)c3cccc(C(F)(F)F)n3)c2)CC1 [Example 2.067]
Second: O=C(Nc1cccc(CN2CCC(C(=O)NC3CCC3)CC2)c1)c1ccc(Cl)cc1 [Example 2.007]
The EC50 of the first is 410-fold higher: 406 nM for the first, 1 nM for the second. The second is the more potent here.

First: CCCN(C)C(=O)C1CCN(Cc2cccc(NC(=O)c3cncc(C)c3)c2)CC1 [Example 2.056]
Second: CC(NC(=O)C1CCN(Cc2cccc(NC(=O)c3ccc(Cl)cc3)c2)CC1)C1CCCCC1 (racemic) [Example 2.016]
The EC50 of the first is 22-fold lower: 6 nM for the first, 134 nM for the second. The first is the more potent here.

`CC(C)(C)NC(=O)C1CCN(Cc2cc(NC(=O)c3cccc(C(F)(F)F)n3)ccc2F)CC1` [Example 4.017, 6-Trifluoromethyl-pyridine-2-carboxylic acid [3-(4-tert-butylcarbamoyl-piperidin-1-ylmethyl)-4-fluoro-phenyl]-amide] and `CCCCNC(=O)C1CCN(Cc2cccc(NC(=O)c3cccc(C(F)(F)F)n3)c2)CC1` [Example 2.095] are the same in EC50: 2 nM for the first, 2 nM for the second.

`O=C(Nc1cccc(CN2CCC(C(=O)NCC3CCCCC3)CC2)c1)c1ccc(Cl)cc1` [Example 2.015] and `O=C(Nc1cncc(CN2CCC(C(=O)NC3CCCCC3)CC2)c1)c1ccc(Cl)cc1` [Example 3.004, 1-[5-(4-Chloro-benzoylamino)-pyridin-3-ylmethyl]-piperidine-4-carboxylic acid cyclohexylamide] are within 1.5-fold of each other in EC50: 46 nM for the first, 36 nM for the second.

`CC(NC(=O)C1CCN(Cc2cccc(NC(=O)c3ccc(Cl)cc3)c2)CC1)c1cccc2ccccc12` (racemic) [Example 2.018] and `Cc1cncc(C(=O)Nc2cccc(CN3CCC(C(=O)NC4(C#N)CC4)CC3)c2)c1` [Example 2.045] are within 1.5-fold of each other in EC50: 349 nM for the first, 402 nM for the second.

Compared with `CCC(CO)NC(=O)C1CCN(Cc2cccc(NC(=O)c3cccc(C(F)(F)F)n3)c2)CC1` (stereo not shown) [Example 2.065], `CC(C)(CO)NC(=O)C1CCN(Cc2cccc(NC(=O)c3cccc(C(F)(F)F)n3)c2)CC1` [Example 2.091] is 4.3-fold lower in EC50: 26 nM for the first, 6 nM for the second.

Going from `Cc1cncc(C(=O)Nc2cccc(CN3CCC(C(=O)NCC4CC4)CC3)c2)c1` [Example 2.043] to `CNC(=O)C1CCN(Cc2cccc(NC(=O)c3ccc(Cl)cc3)c2)CC1` [Example 2.002], the EC50 falls from 20 nM to 3 nM (6.7-fold).

Compared with `O=C(Nc1cccc(CN2CCC(C(=O)NC3CCCCC3)CC2)c1)c1ccc(F)c[n+]1[O-]` [Example 4.005, 5-Fluoro-1-oxy-pyridine-2-carboxylic acid [3-(4-cyclohexylcarbamoyl-piperidin-1-ylmethyl)-phenyl]-amide], `O=C(Nc1cccc(CN2CCCC(C(=O)NCC3CC3)CC2)c1)c1cccc(C(F)(F)F)n1` (racemic) [Example 2.089] is 9-fold higher in EC50: 4 nM for the first, 36 nM for the second. The first is the more potent here.

Going from `CC(C)CNC(=O)C1CCN(Cc2cccc(NC(=O)c3cccc(C(F)(F)F)n3)c2)CC1` [Example 2.071] to `CNC(=O)C1CCN(Cc2cccc(NC(=O)c3cccs3)c2)CC1` [Example 2.072], the EC50 rises from 2 nM to 188 nM (94-fold). The first is the more potent here.

First: COCCN(C)C(=O)C1CCN(Cc2cccc(NC(=O)c3cncc(C)c3)c2)CC1 [Example 2.058]
Second: O=C(Nc1cccc(CN2CCC(C(=O)NC3CCCCC3)CC2)c1)c1cccs1 [Example 2.075]
The EC50 of the first is 32-fold higher: 224 nM for the first, 7 nM for the second. The second is the more potent here.

Going from `O=C(Nc1cncc(CN2CCC(C(=O)NC3CCCCC3)CC2)c1)c1ccc(F)cc1` [Example 3.005, 1-[5-(4-Fluoro-benzoylamino)-pyridin-3-ylmethyl]-piperidine-4-carboxylic acid cyclohexylamide] to `Cc1cncc(C(=O)Nc2cccc(CN3CCC(C(=O)NC4CCC(F)(F)CC4)CC3)c2)c1` [Example 2.044], the EC50 falls from 57 nM to 27 nM (2.1-fold). The second is the more potent here.

First: O=C(Nc1cccc(CN2CCC(C(=O)NC3CC4CCC3C4)CC2)c1)c1ccc(Cl)cc1 (racemic) [Example 2.008]
Second: CCNC(=O)C1CCN(Cc2cccc(NC(=O)c3cccc(C(F)(F)F)n3)c2)CC1 [Example 2.069]
The EC50 of the first is 1.5-fold higher: 6 nM for the first, 4 nM for the second.

Compared with `Cc1cncc(C(=O)Nc2cccc(CN3CCC(C(=O)N4CCCC4)CC3)c2)c1` [Example 2.047], “1-{4-Chloro-3-[(2-phenyl-cyclopropanecarbonyl)-amino]-benzyl}-piperidine-4-carboxylic acid cyclohexylamide [Example 1.161]” is 2.6-fold lower in EC50: 67 nM for the first, 26 nM for the second.

Going from `O=C(Nc1cccc(CN2CCC(C(=O)NCC(F)(F)F)CC2)c1)c1ccc(Cl)cc1` [Example 2.031] to `O=C(NC1CCCCC1)C1CCN(Cc2cccc(NC(=O)[C@@H]3C[C@@H]4CC[C@H]3C4)c2)CC1` (racemic) [Example 1.018, Rac-1-{3-[((1S,2R,4R)-Bicyclo[2.2.1]heptane-2-carbonyl)-amino]-benzyl}-piperidine-4-carboxylic acid cyclohexylamide], the EC50 rises from 3 nM to 5 nM (1.7-fold). The first is the more potent here.

First: COc1ccc(CNC(=O)C2CCN(Cc3cccc(NC(=O)c4ccc(Cl)cc4)c3)CC2)cc1 [Example 2.030]
Second: O=C(Nc1cccc(CN2CCC(C(=O)NC3Cc4ccccc4C3)CC2)c1)c1ccc(Cl)cc1 [Example 2.033]
The EC50 of the first is 92-fold higher: 832 nM for the first, 9 nM for the second.

First: CCCCCCNC(=O)C1CCN(Cc2cccc(NC(=O)c3cccc(C(F)(F)F)n3)c2)CC1 [Example 2.078]
Second: O=C(Nc1ccnc(CN2CCC(C(=O)NC3CCCCC3)CC2)c1)c1ccc(Cl)cc1 [Example 3.007, 1-[4-(4-Chloro-benzoylamino)-pyridin-2-ylmethyl]-piperidine-4-carboxylic acid cyclohexylamide]
The EC50 of the first is 9.2-fold higher: 257 nM for the first, 28 nM for the second.
